Laboratory results as given in ChEMBL document CHEMBL5331135, “Design, Synthesis, and Evaluation of Glucose Transporter Inhibitor-SN38 Conjugates for Targeting Colorectal Cancer” (J Med Chem, 2023).

Key:
HCT-116 = assay: Cytotoxicity against human HCT-116 cells incubated for 48 hrs by SRB assay; type: functional, cell-based; settings: HCT-116, 48 h
[1] = Stability in human plasma assessed as formation of carboxylate product measured for 72 hrs by RP-HPLC analysis; type: ADME, cell-free
[2] = Toxicity in AOM/DSS-induced orthotopic CRC BALB/c mouse model assessed as lesions in liver at 20 to 40 mg/kg, iv administered once every 2 days for 2 weeks by H&E staining based analysis; type: organism-based; settings: in vivo, 336 h, dose 20-40 mg/kg
[3] = Toxicity in AOM/DSS-induced orthotopic CRC BALB/c mouse model assessed as lesions in heart at 20 to 40 mg/kg, iv administered once every 2 days for 2 weeks by H&E staining based analysis; type: organism-based; settings: in vivo, 336 h, dose 20-40 mg/kg
[4] = Antitumor activity against AOM/DSS-induced orthotopic CRC BALB/c mouse model assessed as reduction in tumor area at 40 mg/kg, iv administered once every 2 days for 2 weeks by dissecting microscopic analysis relative to control; type: functional, Colorectal cancer cell; design: scale not given: the % may be the effect or the level left
[5] = Toxicity in AOM/DSS-induced orthotopic CRC BALB/c mouse model assessed as lesions in lung at 20 to 40 mg/kg, iv administered once every 2 days for 2 weeks by H&E staining based analysis; type: organism-based; settings: in vivo, 336 h, dose 20-40 mg/kg
[6] = Toxicity in AOM/DSS-induced orthotopic CRC BALB/c mouse model assessed as lesions in spleen at 20 to 40 mg/kg, iv administered once every 2 days for 2 weeks by H&E staining based analysis; type: organism-based; settings: in vivo, 336 h, dose 20-40 mg/kg
[7] = Toxicity in AOM/DSS-induced orthotopic CRC BALB/c mouse model assessed as lesions in kidney at 20 to 40 mg/kg, iv administered once every 2 days for 2 weeks by H&E staining based analysis; type: organism-based; settings: in vivo, 336 h, dose 20-40 mg/kg
Colorectal cancer cell = assay: Antitumor activity against AOM/DSS-induced orthotopic CRC BALB/c mouse model assessed as reduction in tumor area administered intravenously once every 2 days for 2 weeks by dissecting microscopic analysis; type: functional; settings: dose 20-40 mg/kg, route iv
[8] = Drug uptake in human COLO 205 cells assessed as drug internalization in presence of 4.5 g/L glucose by fluorescence based assay; type: ADME, cell-based
[9] = Toxicity in AOM/DSS-induced orthotopic CRC BALB/c mouse model assessed as body weight loss at 40 mg/kg, iv administered once every 2 days for 2 weeks; type: organism-based; settings: in vivo, 336 h
[10] = Toxicity in AOM/DSS-induced orthotopic CRC BALB/c mouse model assessed as lesions in stomach at 20 to 40 mg/kg, iv administered once every 2 days for 2 weeks by H&E staining based analysis; type: organism-based; settings: in vivo, 336 h, dose 20-40 mg/kg
HT-29 = assay: Cytotoxicity against human HT-29 cells incubated for 48 hrs by SRB assay; type: functional, cell-based; settings: HT-29, 48 h
[11] = Prodrug conversion in lung of BALB/c mouse assessed as SN38 release at 40 mg/kg, iv measured after 4 hrs by UHPLC-MS/MS analysis; type: ADME, organism-based; settings: in vivo
[12] = Prodrug conversion in buffer assessed as SN38 release at 1 uM measured for 2 hrs by UHPLC-MS/MS analysis; type: ADME
COLO 205 = assay: Cytotoxicity against human COLO 205 cells incubated for 48 hrs by SRB assay; type: functional, cell-based; settings: COLO 205, 48 h
[13] = Stability in human plasma assessed as half life by RP-HPLC analysis; type: ADME, cell-free

With CCc1c2c(nc3ccc(OCc4ccc(NC(=O)[C@H](CCCNC(N)=O)NC(=O)[C@@H](NC(=O)CCCCN5C(=O)CC(SCCOCCOCCOc6cc(O)c(C(=O)CCc7ccc(O)cc7)c(O)c6)C5=O)C(C)C)cc4)cc13)-c1cc3c(c(=O)n1C2)COC(=O)[C@]3(O)CC (some centres not stated) the IC50 (HCT-116) was 7430 nM, the Stability [1] was “Stable” and the Activity [2] was “Non-Toxic”. For the same molecule, the Activity [3] was “Non-Toxic”, the Activity [4] was 75% and the Activity [5] was “Non-Toxic”. The Activity [6] was “Non-Toxic”, the Activity [7] was “Non-Toxic” and the Activity (Colorectal cancer cell) was “Dose-Dependent Effect”. For the same molecule, the Drug uptake [8] was “Active”, the Activity [9] was “Non-Toxic” and the Activity [10] was “Non-Toxic”. For the same molecule, the IC50 (HT-29) was over 100000 nM, the Drug metabolism [11] was “Metabolite_Notdetected” and the Drug metabolism [12] was “Not Active”. It also gave an IC50 (COLO 205) of 4590 nM and a half-life [13] of 36 h.

CCc1c2c(nc3ccc(O)cc13)-c1cc3c(c(=O)n1C2)COC(=O)[C@]3(O)CC [7-ETHYL-10-HYDROXYCAMPTOTHECIN] showed an IC50 (HCT-116) of 54.9 nM, an IC50 (HT-29) of 430 nM and an IC50 (COLO 205) of 0.75 nM.

In the case of CCc1c2c(nc3ccc(OC(=O)OCCSSCCOCCOCCOc4cc(O)c(C(=O)CCc5ccc(O)cc5)c(O[C@@H]5O[C@H](CO)[C@@H](O)[C@H](O)[C@H]5O)c4)cc13)-c1cc3c(c(=O)n1C2)COC(=O)[C@]3(O)CC, the IC50 (HCT-116) is reported as 42.3 nM, the IC50 (HT-29) is reported as 510 nM and the IC50 (COLO 205) is reported as 640 nM. It also gave a half-life [13] of 0.333 h.

Work on O=C(CCc1ccc(O)cc1)c1c(O)cc(O)cc1O[C@@H]1O[C@H](CO)[C@@H](O)[C@H](O)[C@H]1O [PHLORIZIN] yielded an IC50 (HCT-116) of over 100000 nM, an IC50 (HT-29) of over 100000 nM and an IC50 (COLO 205) of over 100000 nM.
